Key:
Format in all cases: biochemical
CDK1/Cyclin B1 = CDK1/Cyclin B1 (Homo sapiens (Human), UniProt P06493); assay: CDK1/Cyclin B1 ADP-Glo Kinase Assay
Description: CDK1/Cyclin B1 ADP-Glo Kinase Assay
(§1) The purpose of CDK1/Cyclin Bi assay is to evaluate the inhibition (% inhibition and IC50 values) of small molecule inhibitors by using a Luminescent based ADP-Glo assay. CDK1/Cyclin B1 catalyzes the production of ADP from ATP. ADP-Glo assay monitors ADP producing biochemical reactions. ADP-Glo is performed in 2 steps upon completion of kinase reaction: a combined termination of kinase reaction and depletion of remaining ATP in the first step, and conversion of generated ADP to ATP and the newly produced ATP to light output using luciferase/luciferin reaction in the second step. The luminescent signal generated is proportional to the ADP concentration produced and is correlated with the kinase activity. CDK1/Cyclin B1 was purchased from Carna (Cat 04-102). […] The assay was initiated with the addition of ATP-containing substrate solution, following a 30-minute pre-incubation of enzyme and inhibitor at room temperature in the reaction mixture. The reaction was stopped after 90 minutes at room temperature by the addition of 10 μL of ADP-GLO Reagent. After a 90 minute incubation, 20 μL of Kinase Detection Reagent was added. Samples were incubated for 40 minutes, after which plate well luminescence was measured on a Envision microplate reader. The IC50 determinations were made from a plot of the fractional velocity as a function of inhibitor concentration fit to the 4 parameters IC50 equation.

CDK4/Cyclin D1 = CDK4/Cyclin D1 (Homo sapiens (Human), UniProt P11802); assay: CDK4/Cyclin D1 CHEF Assay; conditions: AQT; read-out: CDK4/CyclinD1 AQT IC50
Source text: CDK4/Cyclin D1 CHEF Assay
The purpose of CDK4/Cyclin Dl assay is to evaluate the inhibition (% inhibition and IC50 values) of small molecule inhibitors by using a Chelation-Enhance Fluorescence (CHEF) assay. In a CHEF assay, phosphorylation of a peptide substrate results in proportional increase in fluorescence. CHEF kinase assay use peptide substrates containing a synthetic alpha-amino acid with a side chain bearing an 8-hydroxyquinoline derivative (sulfonamido-oxide, Sox). Upon phosphorylation of a nearby serine, threonine or tyrosine and in the presence of Mg(II), the spectral properties of the Sox residue are altered, emitting 485 nm wavelength light when excited with a 360 nm wavelength light source. CDK4/Cyclin D1 catalyzes the phosphoryl transfer to the SOX-labeled substrate peptide AQT0258 from Assayquant Technologies. […] The reaction was initiated with the addition of substrate solution, following a 30-minute pre-incubation of enzyme and inhibitor at 22° C. in the reaction mix. Reactions were allowed to proceed for 3 hrs at 22° C., followed by fluorescence read of the reaction. The IC50 determinations were made from a plot of the fractional velocity as a function of inhibitor concentration fit to the 4 parameters IC50 equation.

CDK6/Cyclin D3 = CDK6/Cyclin D3 (Homo sapiens (Human), UniProt Q00534); assay: CDK6/Cyclin D3 ADP-Glo Kinase Assay; conditions: read-out: CDK6/CyclinD3 IC50
Description: CDK6/Cyclin D3 ADP-Glo Kinase Assay
as §1, with “of the CDK6/Cyclin D3” for “of CDK1/Cyclin Bi”, “values) in the presence” for “values)”, “assay. CDK6/Cyclin D3” for “assay. CDK1/Cyclin B1”, “activity. CDK6/Cychin D3” for “activity. CDK1/Cyclin B1”, “from Carna.” for “from Carna (Cat 04-102).”, “a 90-minute” for “a 90 minute”

CDK1/Cyclin B1, sequence (P06493 whole entry): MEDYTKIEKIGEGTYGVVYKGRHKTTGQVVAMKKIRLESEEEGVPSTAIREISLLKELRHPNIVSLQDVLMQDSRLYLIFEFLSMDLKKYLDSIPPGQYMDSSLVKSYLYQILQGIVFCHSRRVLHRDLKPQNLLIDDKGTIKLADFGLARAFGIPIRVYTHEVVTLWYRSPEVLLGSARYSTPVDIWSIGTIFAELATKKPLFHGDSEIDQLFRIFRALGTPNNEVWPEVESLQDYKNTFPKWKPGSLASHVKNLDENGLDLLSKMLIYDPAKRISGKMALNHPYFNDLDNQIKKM
CDK1/Cyclin B1, sequence (P14635 whole entry partner): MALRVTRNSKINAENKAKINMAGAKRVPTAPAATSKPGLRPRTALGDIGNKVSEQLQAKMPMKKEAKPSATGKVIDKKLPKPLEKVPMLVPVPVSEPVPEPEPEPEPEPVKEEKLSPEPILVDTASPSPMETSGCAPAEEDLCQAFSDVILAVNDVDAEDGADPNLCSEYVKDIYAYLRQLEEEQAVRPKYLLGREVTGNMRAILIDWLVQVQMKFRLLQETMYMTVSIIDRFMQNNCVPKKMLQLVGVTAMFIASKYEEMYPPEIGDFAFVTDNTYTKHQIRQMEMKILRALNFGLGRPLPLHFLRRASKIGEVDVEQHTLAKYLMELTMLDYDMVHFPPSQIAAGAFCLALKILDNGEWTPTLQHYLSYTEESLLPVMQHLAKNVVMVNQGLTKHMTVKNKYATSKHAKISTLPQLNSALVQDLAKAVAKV
CDK4/Cyclin D1, sequence (P11802 whole entry, species assumed): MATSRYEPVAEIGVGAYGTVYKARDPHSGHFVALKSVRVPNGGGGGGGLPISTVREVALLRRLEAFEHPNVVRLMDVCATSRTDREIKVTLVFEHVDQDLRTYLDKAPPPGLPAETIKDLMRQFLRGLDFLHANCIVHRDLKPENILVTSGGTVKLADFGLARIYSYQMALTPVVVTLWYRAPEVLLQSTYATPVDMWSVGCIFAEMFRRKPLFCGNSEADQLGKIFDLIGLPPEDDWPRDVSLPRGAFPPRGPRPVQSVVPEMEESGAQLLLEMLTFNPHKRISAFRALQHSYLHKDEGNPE
CDK4/Cyclin D1, sequence (P24385 whole entry partner, species assumed): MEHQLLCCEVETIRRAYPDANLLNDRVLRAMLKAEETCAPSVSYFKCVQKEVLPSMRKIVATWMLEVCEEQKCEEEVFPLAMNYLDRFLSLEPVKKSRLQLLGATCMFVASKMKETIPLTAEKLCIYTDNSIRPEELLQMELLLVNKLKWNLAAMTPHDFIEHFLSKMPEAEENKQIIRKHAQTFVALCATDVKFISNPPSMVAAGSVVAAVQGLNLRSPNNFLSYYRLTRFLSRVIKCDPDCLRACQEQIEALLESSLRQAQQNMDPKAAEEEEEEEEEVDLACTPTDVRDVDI
CDK6/Cyclin D3, sequence (Q00534 whole entry): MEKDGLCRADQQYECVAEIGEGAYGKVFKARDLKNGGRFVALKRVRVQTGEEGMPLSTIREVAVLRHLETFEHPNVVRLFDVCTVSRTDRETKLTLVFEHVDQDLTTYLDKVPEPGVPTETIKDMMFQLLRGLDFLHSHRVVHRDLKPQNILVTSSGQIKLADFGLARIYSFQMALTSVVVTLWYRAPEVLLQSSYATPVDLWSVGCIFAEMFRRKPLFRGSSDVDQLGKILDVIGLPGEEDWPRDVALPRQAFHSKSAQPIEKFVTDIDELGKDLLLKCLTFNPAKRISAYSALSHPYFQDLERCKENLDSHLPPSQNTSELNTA
CDK6/Cyclin D3, sequence (P30281 whole entry partner): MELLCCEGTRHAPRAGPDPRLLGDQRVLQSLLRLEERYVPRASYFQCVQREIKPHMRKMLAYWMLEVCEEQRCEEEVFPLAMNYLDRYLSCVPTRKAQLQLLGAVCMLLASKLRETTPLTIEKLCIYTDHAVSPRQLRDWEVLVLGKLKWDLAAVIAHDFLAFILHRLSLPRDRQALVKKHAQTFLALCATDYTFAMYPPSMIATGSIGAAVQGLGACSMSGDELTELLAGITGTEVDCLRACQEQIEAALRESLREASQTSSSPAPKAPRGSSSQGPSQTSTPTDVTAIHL

How did the IC50 (CDK1/Cyclin B1) turn out when `Cc1cc2cnc(NC3CCN(S(=O)(=O)C4CC4)CC3)nc2c(N2CCC(OC(F)F)C2)n1` (centres unmarked) [Compound 58, N-(1-(cyclopropylsulfonyl)piperidin-4-yl)-8-(3-(difluoromethoxy)pyrrolidin-1-yl)-6-methylpyrido[3,4-d]pyrimidin-2-amine] was run?
Its IC50 is under 200 nM.

And the IC50 (CDK4/Cyclin D1)?
The IC50 was under 200 nM.

And the IC50 (CDK6/Cyclin D3)?
The IC50 was under 200 nM.

Which results are given for `Cc1cc2cnc(NC3CCN(S(C)(=O)=O)CC3)nc2c(N2CC(O)(C(F)F)C2)n1` [Compound 91, 3-(difluoromethyl)-1-(6-methyl-2-((1-(methylsulfonyl)piperidin-4-yl)amino)pyrido[3,4-d]pyrimidin-8-yl)azetidin-3-ol]?
IC50 (CDK1/Cyclin B1): < 200 nM; IC50 (CDK4/Cyclin D1): < 200 nM; IC50 (CDK6/Cyclin D3): < 200 nM

What does the source list for `Cc1cc2cnc(NC3CCN(S(=O)(=O)C4CC4)CC3)nc2c(N2CC(F)(F)C3(CN(C)C3)C2)n1` [Compound 102, N-(1-(cyclopropylsulfonyl)piperidin-4-yl)-8-(8,8-difluoro-2-methyl-2,6-diazaspiro[3.4]octan-6-yl)-6-methylpyrido[3,4-d]pyrimidin-2-amine]?
IC50 (CDK1/Cyclin B1): < 200 nM; IC50 (CDK4/Cyclin D1): < 200 nM; IC50 (CDK6/Cyclin D3): < 200 nM

What does the source list for `Cc1cc2cnc(NC3CCN(S(=O)(=O)C4CC4)CC3)nc2c(N2CC3(CCNC3)C2)n1` [Compound 25, N-(1-(cyclopropylsulfonyl)piperidin-4-yl)-6-methyl-8-(2,6-diazaspiro[3.4]octan-2-yl) pyrido[3,4-d]pyrimidin-2-amine]?
IC50 (CDK1/Cyclin B1): 200 to 500 nM; IC50 (CDK4/Cyclin D1): < 200 nM; IC50 (CDK6/Cyclin D3): < 200 nM

For `COC1CC2(C1)CN(c1nc(C3CC3)cc3cnc(NC4CCN(S(C)(=O)=O)CC4)nc13)C2` [Compound 75, 6-cyclopropyl-8-(6-methoxy-2-azaspiro[3.3]heptan-2-yl)-N-(1-(methylsulfonyl)piperidin-4-yl)pyrido[3,4-d]pyrimidin-2-amine], which IC50 (CDK1/Cyclin B1) is on record?
Its IC50 is over 2000 nM.

What about the IC50 (CDK4/Cyclin D1) of the same compound?
Its IC50 is under 200 nM.

And the IC50 (CDK6/Cyclin D3)?
Its IC50 is under 200 nM.

`CS(=O)(=O)N1CCC(Nc2ncc3cc(C4CC4)nc(N4CC(F)(F)C5(CNC5)C4)c3n2)CC1` [Compound 60, 6-cyclopropyl-8-(8,8-difluoro-2,6-diazaspiro[3.4]octan-6-yl)-N-(1-(methylsulfonyl)piperidin-4-yl)pyrido[3,4-d]pyrimidin-2-amine] was tested. Which IC50 (CDK1/Cyclin B1) did it give?
Its IC50 is under 200 nM.

And the IC50 (CDK4/Cyclin D1)?
Its IC50 is under 200 nM.

And the IC50 (CDK6/Cyclin D3)?
Its IC50 is under 200 nM.

Which results are given for `O=S(=O)(CC1CCC1)N1CCC(Nc2ncc3cc(C(F)F)nc(N4CC5(CCNC5)C4)c3n2)CC1` [Compound 55]?
IC50 (CDK1/Cyclin B1): < 200 nM; IC50 (CDK4/Cyclin D1): < 200 nM; IC50 (CDK6/Cyclin D3): < 200 nM

What does the source list for `Cc1cc2cnc(NC3CCN(S(C)(=O)=O)CC3)nc2c(N2CC3(CCC(=O)N3)C2)n1` [Compound 77, 2-(6-methyl-2-((1-(methylsulfonyl)piperidin-4-yl)amino)pyrido[3,4-d]pyrimidin-8-yl)-2,5-diazaspiro[3.4] octan-6-one]?
IC50 (CDK1/Cyclin B1): 200 to 500 nM; IC50 (CDK4/Cyclin D1): < 200 nM; IC50 (CDK6/Cyclin D3): < 200 nM

How did the IC50 (CDK1/Cyclin B1) turn out when `Cc1cc2cnc(NC3CCN(S(C)(=O)=O)CC3)nc2c(N2CC3(CNCC3F)C2)n1` (centres unmarked) [Compound 98, 8-(8-fluoro-2,6-diazaspiro[3.4]octan-2-yl)-6-methyl-N-(1-(methylsulfonyl)piperidin-4-yl)pyrido[3,4-d]pyrimidin-2-amine] was run?
The IC50 was 200 to 500 nM.

What about the IC50 (CDK4/Cyclin D1) of the same compound?
The IC50 was under 200 nM.

What about the IC50 (CDK6/Cyclin D3) of the same compound?
Its IC50 is 200 to 500 nM.

Which IC50 (CDK1/Cyclin B1) does the source give for `Cc1cc2cnc(Nc3cc4c(cc3F)CN(S(C)(=O)=O)C4)nc2c(N2CC3(CCNC3)C2)n1` [Compound 39, N-(6-fluoro-2-(methylsulfonyl)isoindolin-5-yl)-6-methyl-8-(2,6-diazaspiro [3.4]octan-2-yl)pyrido[3,4-d]pyrimidin-2-amine] here?
Its IC50 is over 2000 nM.

And the IC50 (CDK4/Cyclin D1)?
Its IC50 is 200 to 500 nM.

And the IC50 (CDK6/Cyclin D3)?
The IC50 was over 2000 nM.

How did the IC50 (CDK1/Cyclin B1) turn out when `CCS(=O)(=O)N1CCC(Nc2ncc3cc(C)nc(N4CC(F)(F)C5(CNC5)C4)c3n2)CC1` [Compound 95, 8-(8,8-difluoro-2,6-diazaspiro[3.4]octan-6-yl)-N-(1-(ethylsulfonyl)piperidin-4-yl)-6-methylpyrido[3,4-d]pyrimidin-2-amine] was run?
The IC50 was under 200 nM.

What about the IC50 (CDK4/Cyclin D1) of the same compound?
Its IC50 is under 200 nM.

And the IC50 (CDK6/Cyclin D3)?
Its IC50 is under 200 nM.

How did the IC50 (CDK1/Cyclin B1) turn out when `COC1CC2(C1)CN(c1nc(C)cc3cnc(NC4CCN(S(C)(=O)=O)CC4)nc13)C2` [Compound 76, 8-(6-methoxy-2-azaspiro[3.3]heptan-2-yl)-6-methyl-N-(1-(methylsulfonyl)piperidin-4-yl)pyrido[3,4-d]pyrimidin-2-amine] was run?
Its IC50 is 200 to 500 nM.

What about the IC50 (CDK4/Cyclin D1) of the same compound?
Its IC50 is under 200 nM.

What about the IC50 (CDK6/Cyclin D3) of the same compound?
The IC50 was under 200 nM.

For `Cc1cc2cnc(NC3CCN(S(=O)(=O)c4cnn(C)c4)CC3)nc2c(N2CC(F)(F)C3(CNC3)C2)n1` [Compound 89, 8-(8,8-difluoro-2,6-diazaspiro[3.4]octan-6-yl)-6-methyl-N-(1-((1-methyl-1H-pyrazol-4-yl)sulfonyl)piperidin-4-yl)pyrido[3,4-d]pyrimidin-2-amine], which IC50 (CDK1/Cyclin B1) is on record?
The IC50 was under 200 nM.

What about the IC50 (CDK4/Cyclin D1) of the same compound?
The IC50 was under 200 nM.

What about the IC50 (CDK6/Cyclin D3) of the same compound?
Its IC50 is under 200 nM.

For `Cc1cc2cnc(Nc3ccc4c(c3)CN(C)C4)nc2c(N2CC3(C2)CN(C2CC2)C3)n1` [Compound 44, 8-(6-cyclopropyl-2,6-diazaspiro[3.3]heptan-2-yl)-6-methyl-N-(2-methylisoindolin-5-yl)pyrido[3,4-d]pyrimidin-2-amine], which IC50 (CDK1/Cyclin B1) is on record?
Its IC50 is over 2000 nM.

And the IC50 (CDK4/Cyclin D1)?
The IC50 was 200 to 500 nM.

What does the source list for `Cc1cc2cnc(NC3CCN(S(=O)(=O)C4CC4)CC3)nc2c(N2CC(C#N)(CCF)C2)n1` [Compound 68, 1-(2-((1-(cyclopropylsulfonyl)piperidin-4-yl)amino)-6-methylpyrido[3,4-d]pyrimidin-8-yl)-3-(2-fluoroethyl) azetidine-3-carbonitrile]?
IC50 (CDK1/Cyclin B1): > 2000 nM; IC50 (CDK4/Cyclin D1): 200 to 500 nM

Which results are given for `Cc1cc2cnc(Nc3ccc(N4CC5(CN(C)C5)C4)cc3)nc2c(N2CCC(C#N)(C3CC3)C2)n1` (centres unmarked) [Compound 28, 3-cyclopropyl-1-(6-methyl-2-((4-(6-methyl-2,6-diazaspiro[3.3]heptan-2-yl)phenyl)amino)pyrido[3,4-d]pyrimidin-8-yl)pyrrolidine-3-carbonitrile]?
IC50 (CDK4/Cyclin D1): < 200 nM; IC50 (CDK6/Cyclin D3): < 200 nM

Which results are given for `CN1Cc2ccc(Nc3ncc4ccnc(N5CC6(C5)CS(=O)(=O)C6)c4n3)cc2C1` [Compound 24, 6-(2-((2-methylisoindolin-5-yl)amino)pyrido [3,4-d]pyrimidin-8-yl)-2-thia-6-azaspiro[3.3] heptane2,2-dioxide]?
IC50 (CDK4/Cyclin D1): < 200 nM; IC50 (CDK6/Cyclin D3): < 200 nM

Which IC50 (CDK1/Cyclin B1) does the source give for `Cc1cc2cnc(N[C@H]3CC[C@@H](CN(C)C)CC3)nc2c(N2CCC3(C2)CC3(F)F)n1` (some centres unmarked) [Compound 45, 8-(1,1-difluoro-5-azaspiro[2.4]heptan-5-yl)-N-((1s,4s)-4-((dimethylamino)methyl)cyclohexyl)-6-methylpyrido[3,4-d]pyrimidin-2-amine] here?
Its IC50 is over 2000 nM.

What about the IC50 (CDK4/Cyclin D1) of the same compound?
Its IC50 is under 200 nM.

Which IC50 (CDK4/Cyclin D1) does the source give for `COCCN1CC2(CC(c3nc(C4CC4)cc4cnc(NC5CCN(S(=O)(=O)CC6CCC6)CC5)nc34)C2)C1` [Compound 80, N-(1-((cyclobutylmethyl)sulfonyl)piperidin-4-yl)-6-cyclopropyl-8-(2-(2-methoxyethyl)-2-azaspiro[3.3]heptan-6-yl)pyrido[3,4-d]pyrimidin-2-amine] here?
Its IC50 is under 200 nM.

What about the IC50 (CDK6/Cyclin D3) of the same compound?
Its IC50 is under 200 nM.

How did the IC50 (CDK4/Cyclin D1) turn out when `Cc1cc2cnc(Nc3ccc(N4CC5(CN(C)C5)C4)cc3)nc2c(N2CCC3(C2)CC3(F)F)n1` (centres unmarked) [Compound 34, 8-(1,1-difluoro-5-azaspiro[2.4]heptan-5-yl)-6-methyl-N-(4-(6-methyl-2,6-diazaspiro[3.3]heptan-2-yl)phenyl)pyrido [3,4-d]pyrimidin-2-amine] was run?
Its IC50 is under 200 nM.

What about the IC50 (CDK6/Cyclin D3) of the same compound?
The IC50 was under 200 nM.

Source: patent publication US20250235456A1, “METHODS OF USE FOR AZA-QUINAZOLINE COMPOUNDS” (Iambic Therapeutics, Inc., priority 2024, published 2025)
